# Laboratory results reported in patent US5204470A, “Azabicyclic derivatives” (John Wyeth & Brother, Limited, priority 1990, dated 1993).
# Tests used:
# 5-HT3 receptors [1] = target: T1, 5-HT3 receptors (Rattus norvegicus, UniProt P35563); assay: 5-HT3 receptor antagonism in the isolated vagus nerve of the rat (5-HT induced depolarization); format: cell-based; conditions: isolated rat cervical vagus nerve; antagonism of 5-HT induced depolarization; estimated from 5-HT concentration ratios; read-out: apparent pKB (converted)
# T1 construct: isolated vagus nerve of the rat; from tissue; host or cells: rat isolated (cervical) vagus nerve
# T1 sequence (P35563 24-483): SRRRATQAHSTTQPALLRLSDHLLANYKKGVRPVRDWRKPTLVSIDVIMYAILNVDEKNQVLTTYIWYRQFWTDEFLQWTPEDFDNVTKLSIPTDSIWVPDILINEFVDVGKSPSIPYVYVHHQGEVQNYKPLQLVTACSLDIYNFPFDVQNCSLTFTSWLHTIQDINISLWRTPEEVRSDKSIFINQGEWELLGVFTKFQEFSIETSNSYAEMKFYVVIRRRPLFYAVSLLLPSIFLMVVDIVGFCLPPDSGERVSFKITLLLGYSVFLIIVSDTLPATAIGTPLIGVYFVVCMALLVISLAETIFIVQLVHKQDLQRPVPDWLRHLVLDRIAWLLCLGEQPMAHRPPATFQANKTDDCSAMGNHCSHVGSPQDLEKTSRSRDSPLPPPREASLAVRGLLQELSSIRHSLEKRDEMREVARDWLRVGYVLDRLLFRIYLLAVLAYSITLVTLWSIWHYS
# Experimental: The compounds of the invention are tested for 5-HT3 receptor antagonism in the isolated vagus nerve of the rat by a method based upon that of Ireland S. J. and Tyers M. B., Brit. J. Pharmacol., 1987, 90, 229-238. The procedure relies upon the ability of 5-HT to induce depolarization of neurones in the cervical vagus nerve by a direct action on 5-HT3 receptors. A concentration-response curve to 5-HT induced depolarization is obtained and the antagonists are added to the bath containing the isolated nerve before repeating the 5-HT concentration-response curve. Antagonist potency is estimated for the 5-HT concentration ratios and expressed as an apparent pKB value (where KB is the antagonist dissociation constant).
# 5-HT3 receptors [2] = target: T2, 5-HT3 receptors (Oryctolagus cuniculus, UniProt A0A5F9C9J3); assay: 5-HT3 antagonist activity in the isolated right atrium of the rabbit heart; format: cell-based; conditions: antagonism of 5-HT evoked increase in spontaneous rate of beating, read-out: apparent pKB (converted)
# T2 construct: isolated right atrium of the rabbit heart; from tissue; host or cells: rabbit isolated right atrium (sympathetic nerve terminals)
# T2 sequence (A0A5F9C9J3 1-494): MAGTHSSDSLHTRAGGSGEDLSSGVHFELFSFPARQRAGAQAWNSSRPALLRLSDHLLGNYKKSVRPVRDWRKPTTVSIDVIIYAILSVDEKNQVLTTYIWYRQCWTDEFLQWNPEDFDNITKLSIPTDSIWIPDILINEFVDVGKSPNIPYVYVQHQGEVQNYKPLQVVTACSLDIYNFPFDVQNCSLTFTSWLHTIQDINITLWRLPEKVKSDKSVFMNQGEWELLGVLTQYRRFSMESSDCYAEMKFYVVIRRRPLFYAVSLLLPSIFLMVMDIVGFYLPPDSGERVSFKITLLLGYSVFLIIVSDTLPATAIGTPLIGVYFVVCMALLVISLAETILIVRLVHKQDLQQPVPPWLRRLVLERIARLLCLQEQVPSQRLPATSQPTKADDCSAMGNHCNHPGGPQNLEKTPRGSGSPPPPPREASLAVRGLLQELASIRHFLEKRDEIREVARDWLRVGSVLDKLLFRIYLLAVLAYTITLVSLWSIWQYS
# Experimental: The compounds of the invention are also tested for 5-HT3 antagonist activity in the isolated right atrium of the rabbit heart based upon the method of Fozard J. R., Naunyn-Schmiedeberg's Arch. Pharmacol., 1984, 326, 36-44. This procedure relies upon the ability of 5-HT to stimulate 5-HT3 receptors present on symphetic nerve terminals in the heart, causing release of noradrenaline which evokes an increase in the spontaneous rate of beating. The antagonist potency is expressed in a similar manner to that of the preceding test method i.e. as an apparent pKB.
smiles,measurement,setting,value
"CN1C2C=C(Cc3ccc4ccccc4n3)CC1CC2 (centres unmarked) [Example 2, 3-(2-Quinolinylmethyl)-8-methyl-8-azabicyclo[3.2.1]oct-2-ene]",Kb,5-HT3 receptors [1],63.1 nM
same,Kb,5-HT3 receptors [2],2.51 nM
